Where two headings read alike, the source gives them in different places.
How the values were obtained:
[1] = molecular target: HIV-1 RT (Human immunodeficiency virus type 1 group M subtype B, UniProt P04585); experiment: Control experiments on HIV-1 RT activity
[2] = tested on: HIV-1 strain LAI; experiment: Limit-dilution titer of infectious virus with p24 antigen capture assay; type: cell-based; details: Jurkat E6-1, 250 μg/ml, days 4-10 post infection
Experimental: (A) Jurkat E6-1 cells were grown in RPMI-1640 media supplemented with 10% FBS. Cells were infected with HIV-1 (LAI) at an MOI of 0.01 in media containing gentamicin at 0, 50, 250, or 500 μg/ml. Infected or mock infected cells were maintained in the above media containing the corresponding concentration of gentamicin. Clarified viral supernatant was assayed for RT activity on days 2, 4, 6, 8, and 10 post infection. […] Results are from an average of 3 experiments with error bars corresponding to standard deviation values. (B) Clarified viral supernatants from days 4, 6, 8, and 10 above were used to perform limit-dilution assays in order to determine the level of infectious virus produced in untreated and gentamicin treated cells. A p24 antigen capture assay was used to detect virus. Results are reported as TCID50/ml vs. day post infection. The antigen capture assay was repeated with similar results while the RT activity assay was repeated twice with similar results.
Cells and viruses. Jurkat E6-1 cells (obtained through the ATCC) were cultured in RPMI-1640 supplemented with 10% fetal bovine serum at 37° C. and 5% CO2 according to the ATCC data sheet. HIV-1 strain LAI was obtained through the NIH AIDS Research and Reference Reagent Program.
HIV infection of Jurkat cells. All experiments were performed with Jurkat cells in 24-well plates and in duplicate. […]

[3] = tested on: SARS-CoV frameshift signal; type: cell-based, human
[4] = tested on: endogenous yeast "Killer" virus; experiment: Yeast Killer virus maintenance assay after serial passage; type: cell-based; details: serial passage every 24 h for eight days
[5] = tested on: Jurkat E6-1 cells; details: Jurkat E6-1, 500 μg/ml
[6] = tested on: HIV-1 −1 PRF signal; type: cell-based, human; details: for stimulation of HIV-1 directed −1 PRF: 5-500 μg/ml; for dose dependence of HIV-1 mediated −1 PRF: Example 2
[7] = tested on: M1 satellite virus dsRNA genome; experiment: dsRNA extraction and TAE-agarose gel of Killer yeast cells; type: cell-based; details: gentamicin treated Killer− cells, ~10-times more RNA loaded than control
[8] = HeLa cells, 5, 25, 50, 250 and 500 ug/ml
[9] = Jurkat cells, 5, 25, 50, 250 and 500 ug/ml

With gentamicin the “effect on HIV-1 RT activity” value [1] was “did not affect HIV-1 RT activity”, the “infectious virus in cell-free supernatant” value [2] was “no infectious virus was made” and the “dose dependence of SARS-CoV mediated −1 PRF” value [3, 8] was “dose-dependently increased”. The “dose dependence of SARS-CoV mediated −1 PRF” value [3, 9] was “dose-dependently increased”, the Killer phenotype maintenance ([4]; 50 μg/ml) was “rapid loss of the Killer phenotype” and the Killer phenotype maintenance ([4]; 500 μg/ml) was “rapid loss of the Killer phenotype”. For the same substance, the cell toxicity [5] was “Significant cell toxicity”, the cell toxicity ([5]; listed as Gentamicin) was “significant cell toxicity” and the “HIV-1 directed −1 PRF at the concentration normally used in cell culture” value ([6]; HeLa CD4+ and Jurkat cells, 50 μg/ml) was “increased −1 PRF was observed”. For the same substance, the “stimulation of HIV-1 directed −1 PRF” value ([6]; HeLa CD4+ cells) was “about 40%”, the “stimulation of HIV-1 directed −1 PRF” value ([6]; HeLa CD4+ cells, listed as Gentamicin) was “up to 40%” and the “dose dependence of HIV-1 mediated −1 PRF” value [6, 8] was “dose-dependently increased”. The “dose dependence of HIV-1 mediated −1 PRF” value [6, 9] was “dose-dependently increased”, the “stimulation of HIV-1 directed −1 PRF” value ([6]; Jurkat cells) was “about 40%” and the “stimulation of HIV-1 directed −1 PRF” value ([6]; Jurkat cells, listed as Gentamicin) was “up to 40%”. The “presence of M1 dsRNA genome” value [7] was “no longer present”.
